# Key:
# [1] = system: NF-kB luciferase promoter; assay: NF-κB INHIBITION TEST (NF-kB luciferase reporter, TNFα-stimulated H9c2 cells); format: cell-based, Rat; details: TNFα 100 ng/ml, versus TNFα + Vehicle (0.1% DMSO)
# Description: NFκB-INHIBITION TESTS were performed on various concentrations of 1-hydroxyl 3,5-bis(4′hydroxyl styryl)benzene and a vehicle control (DMSO). The 1-hydroxyl 3,5-bis(4′hydroxyl styryl)benzene was prepared as described in U.S. Pat. No. 7,745,670. The NF-κB INHIBITION TEST was conducted as follows. Rat cardiac myoblasts H9c2 cells were purchased from ATCC (Manassas, Va.). Cultures were maintained in Dulbecco's modified Eagle's medium (DMEM, Invitrogen Life Technologies, Carlsbad, Calif.) supplemented with 10% fetal bovine serum, 100 units/ml penicillin, and 50 ug/ml streptomycin (Invitrogen life technologies, Carlsbad, Calif.). 1×10^4 cells grown in 96-well plates were transiently transfected with 0.45 ug total DNA per well using Lipofectamine 2000 (Invitrogen life technologies, Carlsbad, Calif.). In all transfections, a construct with the thymidine kinase promoter and the Renilla luciferase reporter gene (pRL-TK, Promega, Madison Wis.) was included as an internal control in addition to the NF-kB luciferase promoter. One day after transfection, cells were treated with the indicated samples (in DMSO as vehicle) at indicated concentrations and stimulated with 100 ng/mL of Tumor Necrosis Factor-α (TNFα, Sigma-Aldrich, St Louis, Mo.) for approximately 24 hours before they were lysed for luciferase assays, using Dual-Luciferase Reporter System from Promega (Madison, Wis.), following manufacturer's protocol. Briefly, the firefly luciferase activity was measured first (representing NF-kB promoter activity), followed by the renilla luciferase (internal control), using luminometer LMAX, from Molecular Devices (Sunnyvale, Calif.). The ratio of these two luciferase activities (RLU) was used to evaluate the activity of each promoter: NF-κB Inhibition=[1−(RLUsample/RLUcontrol)]*100 where RLUsample and RLUcontrol are the normalized luciferase activity ratios of the sample and control, respectively. The results are shown in Table 1, in which NF-kB Gene Reporter Activation (Luminescence, L) is reported. Percent NF-kB Inhibition is also reported.
# IL-8 cytokine release = assay: Anti-inflammatory activity: IL-8 cytokine release from epidermal equivalents after solar UV exposure; format: cell-based, human; details: for Change over vehicle alone (Normalized to 100) / % inhibition over UV treatment: IL-8 release; for Change over vehicle alone (Normalized to 100): 2 h before UV 70 kJ/m^2, 24 hours; for % inhibition over UV treatment: UV-exposed epidermal equivalents; for UV-induced inflammation (result in words): summary of Table 2
# Description: The topical anti-inflammatory activities of 1-hydroxyl 3,5-bis(4′hydroxyl styryl)benzene and its piperazine salt were evaluated as follows.
# Epidermal equivalents (EPI 200 HCF), multilayer and differentiated epidermis consisting of normal human epidermal keratinocytes, were purchased from MatTek (Ashland, Mass.). Upon receipt, epidermal equivalents were incubated for 24 hours at 37° C. in maintenance medium without hydrocortisone. Equivalents were topically treated (2 mg/cm^2) with 1-hydroxyl 3,5-bis(4′hydroxyl styryl)benzene thereof in a 70:30 Ethanol-Propylene glycol vehicle two hours before exposure to solar ultraviolet light (1000W-Oriel solar simulator equipped with a 1-mm Schott WG 320 filter; UV dose applied: 70 kJ/m^2 as measured at 360 nm). The equivalents were incubated for 24 hours at 37° C. with maintenance medium then supernatants were analyzed for IL-8 cytokine release using commercially available kits (Millipore Corp., Billerica, Mass.).
# Collagen1A = assay: Induction of Collagen1A gene expression in primary human dermal fibroblasts (quantitative PCR); format: cell-based; details: for Collagen1A Normalized Fold-change in PCR (Mean): 0.1 ug/mL, 48 hr, normalized to GAPDH, from untreated
# Description: (§1) Primary human dermal fibroblasts (Lifeline Cell Technologies, Frederick, Md.) were grown until confluence in DMEM media (Invitrogen/Life Technologies, Carlsbad, Calif.) with 10% FBS and 1% Penicillin-Streptomycin on 24 well tissue culture plates, followed by treatment with 1-hydroxyl 3,5-bis(4′hydroxyl styryl)benzene (0.1 ug/mL) with and without TNF-a for 48 hr. Post-treatment, cells were lysed using RLT buffer and total RNA was isolated using the RNeasy Mini Kit (Qiagen, Valencia, Calif.). Quantitative PCR was performed using the Gene Amp PCR System 9700 and 7500 Real Time PCR System cycler (Applied Biosystems)/Life Technologies, Carlsbad, Calif.). Elastin (Qiagen) and Collagenlal primers (custom sequence-sense: 5′-TCC-CCA-GCT-GTC-TTA-TGG-CT-3′ and anti-sense: 5′-CAG-GCA-CGG-AAA-TTC-CTC-C-3′) were used. The housekeeping gene GAPDH was used for normalization (custom primer sequence: F 5′-ATC-TCT-GCC-CCC-TCT-GCT-G-3′ and R 5′-ATG-GTT-CAC-ACC-CAT-GAC-GA-3′; Invitrogen/Life Technologies, Carlsbad, Calif.). Fold-changes in PCR (normalized to GAPDH) were calculated from untreated.
# Elastin = assay: Induction of Elastin gene expression in primary human dermal fibroblasts (quantitative PCR); format: cell-based; details: for Elastin Normalized Fold-change in PCR (Mean): 0.1 ug/mL, 48 hr, normalized to GAPDH, from untreated
# Description: as §1
# MMP-9 = assay: Inhibition of TNF-α-induced MMP-9 levels in epidermal equivalents; format: cell-based, human; details: for Mean of MMP-9 Release: 2 hours before TNF-α (100 ng/mL), 48 hours
# Description: The ability of 1-hydroxyl 3,5-bis(4′hydroxyl styryl)benzene to inhibit TNF-a induced MMP-9 levels was tested at different concentrations as follows. The formation of TNF-α induced MMP-9 is involved in the undesirable breakdown of extracellular matrix in human skin.
# Epidermal equivalents (EPI 200 HCF) were purchased from MatTek (Ashland, Mass.). Upon receipt, the epidermal equivalents were incubated for 24 hours at 37° C. in maintenance medium without hydrocortisone. The equivalents were topically treated (2 mg/cm^2) with 1-hydroxyl 3,5-bis(4′hydroxyl styryl)benzene extracts in a 70% ethanol/30% propylene glycol vehicle 2 hours before treatment with TNF-α (100 ng/mL). the equivalents were incubated for 48 hours at 37° C. with maintenance medium then supernatants were analyzed for MMP-9 using commercially available kits (R&D Systems, Minneapolis, Minn.).
# [2] = 0.5% topical (2 mg/cm^2) in 70:30 Ethanol-Propylene glycol
# [3] = 1% topical (2 mg/cm^2) in 70:30 Ethanol-Propylene glycol
compound,measurement,setting,value
"Oc1ccc(/C=C/c2cc(O)cc(/C=C/c3ccc(O)cc3)c2)cc1 [1-Hydroxyl 3,5-bis(4′hydroxylstyryl)benzene]",Percent NF-kB Inhibition,[1]; 0.2 ug/ml,0.5%
same,Percent NF-kB Inhibition,[1]; 0.5 ug/ml,22.1%
same,Percent NF-kB Inhibition,[1]; 1 ug/ml,51.7%
same,Percent NF-kB Inhibition,[1]; 2 ug/ml,71.0%
same,Percent NF-kB Inhibition,[1]; 4 ug/ml,96.1%
same,Change over vehicle alone (Normalized to 100),IL-8 cytokine release; [2],82 ± 21
same,% inhibition over UV treatment,IL-8 cytokine release; 0.5% topical,39%
same,Change over vehicle alone (Normalized to 100),IL-8 cytokine release; [3],80 ± 26
same,% inhibition over UV treatment,IL-8 cytokine release; 1% topical,40%
same,UV-induced inflammation (result in words),IL-8 cytokine release,strong reduction in UV-induced inflammation
same,Collagen1A Normalized Fold-change in PCR (Mean),Collagen1A; with TNF-α (10 ng/mL),1.36
same,Collagen1A Normalized Fold-change in PCR (Mean),Collagen1A; without TNF-α,2.96
same,expression of genes associated with collagen production (result in words),Collagen1A; summary of Tables 3A and 3B,increased the expression of genes associated with collagen and elastin production
same,Elastin Normalized Fold-change in PCR (Mean),Elastin; with TNF-α (10 ng/mL),1.12
same,Elastin Normalized Fold-change in PCR (Mean),Elastin; without TNF-α,6.23
same,expression of genes associated with elastin production (result in words),Elastin; summary of Tables 3A and 3B,increased the expression of genes associated with collagen and elastin production
same,Mean of MMP-9 Release,MMP-9; 0.25% w/v topical (2 mg/cm^2),1392 ± 627 ng/mL
same,Mean of MMP-9 Release,MMP-9; 0.5% w/v topical (2 mg/cm^2),1012 ± 249 ng/mL
same,inhibition at 0.25 % strength,"MMP-9; Homo sapiens, 0.25% w/v topical, TNF-α 100 ng/mL, read-out: Percent Inhibition of MMP-9 Production (over TNF-α alone)",60.9%
same,inhibition at 0.5 % strength,"MMP-9; Homo sapiens, 0.5% w/v topical, TNF-α 100 ng/mL, read-out: Percent Inhibition of MMP-9 Production (over TNF-α alone)",71.6%
same,formation of TNF-α induced MMP-9 (result in words),MMP-9; summary of Table 4,inhibited the formation of TNF-α induced MMP-9
"Oc1ccc(C=Cc2cc(O)cc(C=Cc3ccc(O)cc3)c2)cc1 [1-hydroxyl 3,5-bis(4′hydroxylstyryl)benzene]",Change over vehicle alone (Normalized to 100),IL-8 cytokine release; [2],85 ± 14
same,% inhibition over UV treatment,IL-8 cytokine release; 0.5% topical,37%
same,Change over vehicle alone (Normalized to 100),IL-8 cytokine release; [3],81 ± 31
same,% inhibition over UV treatment,IL-8 cytokine release; 1% topical,40%
same,UV-induced inflammation (result in words),IL-8 cytokine release,strong reduction in UV-induced inflammation
